The values that follow come from patent EP0888303B1, “SYNTHETIC DERIVATIVES OF RAPAMYCIN AS MULTIMERIZING AGENTS FOR CHIMERIC PROTEINS WITH IMMUNOPHILIN-DERIVED DOMAINS” (ARIAD Pharmaceuticals, Inc, priority 1996, dated 1997).

pEC50, pIC50: −log10 of the molar value. Values joined by “and” are separate entries in the source; they are usually repeats but may differ in a detail not shown here. Equal values may be shown once. Read-outs that look alike come from different tables or passages of the source.

One data set has as its target F36L mutant FKBP (Homo sapiens, UniProt P62942, F37L). Kind of data set: Competitive Binding FP Assay.
The next data set deals with wild-type human FKBP12 (Homo sapiens, UniProt P62942). Kind of data set: Competitive Binding FP Assay.
wild-type human FKBP12, sequence (P62942 2-108): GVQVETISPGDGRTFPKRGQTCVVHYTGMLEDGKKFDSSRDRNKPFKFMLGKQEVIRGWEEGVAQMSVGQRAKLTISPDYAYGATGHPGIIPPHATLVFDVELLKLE
The target of a further data set is mutant (F36V) FKBP. The data set is described as follows: Competitive Binding FP Assay. Also on record: species or system human.
In the next data set the target is F36I mutant FKBP. The data set is described as follows: Competitive Binding FP Assay. Also on record: species or system human. To be noted: Synthetic Monomers table; normalized to value of FK506 run in the same experiment.
The target in another data set is F36A mutant FKBP. Kind of data set: Competitive Binding FP Assay. The following applies: Synthetic Monomers table; normalized to value of FK506 run in the same experiment. More on the design: species or system human.
Another data set has as its target F36M mutant FKBP. Kind of data set: Competitive Binding FP Assay. Also on record: species or system human. The following applies: Synthetic Monomers table; normalized to value of FK506 run in the same experiment.
In data set [1] the test system is FAS-FKBP fusion (wt FKBP) in HT1080 cells. It is filed as cell-based, human. To be noted: for Fas killing (wt, stable): % @ 1000: human, ht1080 cells, 1 µM.
Source text: In this case, one uses cells which constituively express a detectable product. The cells also contain and are capable of expressing DNAs encoding chimeric proteins comprising one or more immunophilin-derived ligand binding domains and one or more effector domains, such as the intracellular domain of FAS, capable, upon multimerization, of triggering cell death. […] The cells are maintainined or cultured in a culture medium permitting cell growth or continued viability. The cells or medium are assayed for the presence of the constitutive cellular product, and a base-line level of reporter is thus established. One may use cells engineered for constituive production of hGH or any other conveniently detectable product to serve as the reporter. The compound to be tested is addded to the medium, the cells are incubated, and the cells or medium is tested for the presence of reporter at one or more time points. Decrease in reporter production indicates cell death, an indirect measure of multimerization of the fusion proteins.
The ability of a dimerizer to activate the Fas signal transduction pathway and trigger cell death in cells engineered to express a FAS-FKBP fusion can be tested in cells appropriately transduced by retroviral vectors to express the desired fusion protein. […] The retroviral supernatant is used to transduce target cells. To screen compounds and constructs, we used the human fibrosarcoma line HT1080. Two to three days after transfection, cells are plated into G418 and the resistant population or clones are isolated by standard means. To monitor dimerizer-induced apoptosis, cells are plated into a 96-well plate at either 5000 or 10,000 cells/well in MEM medium containing 10% fetal bovine serum. The next day, medium removed and replaced with freshmedium containing the test compound at various dilutions, in triplicate. In some cases, Actinomycin D is included at 50 ng/ml. Untreated wells are always included. The next day, medium is removed and replaced with medium containing 10% Alamar Blue viability indicator, which changes absorbance properties as a function of reducing agent released into the medium by cell metabolism. Alternatively, cells are counted. Optical density at the appropriate wavelength is measured using a platereader spectroscope.
The test system of data set [2] is FKBP-containing fusion proteins (wt FKBP). The data set is described as follows: Transcription Assay, activation of reporter gene transcription (wt; stable). It is filed as cell-based, human. The following applies: at 1000 nM; each value an individual experiment. In general terms: Reporter assays use an easily measured gene product as a stand-in for the process of interest.
Source text: The ability of the multimerizing agents to multimerize chimeric proteins may be measured cell-based assays by measuring the occurrence of an event triggered by such multimerization. For instance, one may use cells containing and capable of expressing DNAs encoding chimeric proteins comprising one or more immunophilin-derived ligand binding domains and one or more effector domains capable, upon multimerization, of actuating a biological response. We prefer to use cells which further contain a reporter gene under the transcriptional control of a regulatory element (i.e., promoter) which is responsive to the multimerization of the chimeric proteins (at least one of which contains an FKBP domain). […] The cells are grown or maintained in culture. A multimerizing agent is added to the culture medium and after a suitable incubation period (to permit gene expression and secretion, e.g. several hours or overnight) the presence of the reporter gene product is measured. Positive results, i.e., multimerization, correlates with transcription of the reporter gene as observed by the appearance of the reporter gene product. The reporter gene product may be a conveniently detectable protein (e.g. by ELISA) or may catalyze the production of a conveniently detectable product (e.g. colored).
Dimerizers may also be assayed for their ability to activate transcription of a reporter gene linked to a regulatory sequence responsive to the dimerization of FKBP-containing fusion proteins containing one or more transcription regulatory domains (e.g. DNA binding domains and transcription activation domains). We have made use of such as system as follows. […] The reporter plasmid (G5IL2-SEAP) used in these assays contains a gene that encodes for secreted alkaline phosphatase (SEAP) under the control of the minimal IL2 promoter and 5XGAL4 binding sites placed upstream of the promoter. In all cases, a plasmid expressing growth hormone was used as an internal control to moniter transfection efficiency. Approximately, 16 hrs after transfection, the media was removed and the cells were washed twice with PBS. Cells were refed with 2.5 ml of DMEM containing 10% serum and two hours later, synthetic dimerizers were added directly to the medium at appropriate concentrations in 5ul of ethanol carrier solution. Approximetely, 24 hrs after the addition of the drugs, 100 ul of the media was removed and assayed for SEAP activity and another 100 ul of the media was used to assay for growth hormone activity (to normalize for transfection efficiency).

The test system of data set [3] is cells expressing a construct containing p75 followed by 2 mutant FKBPs followed by a Fas effector domain. Kind of data set: Cell death monitored by Alamar Blue or hGH levels in hGH-expressing clones. It is filed as cell-based. From the text: As an alternative method for monitoring cell death, cells expressing a construct containing p75 followed by 2 mutant FKBPs followed by a Fas effector domain were transfected using an episomal vector, pCEP4 (Invitrogen Corp.) into which we had inserted DNA encoding hGH under control of a CMV promoter. The vector confers resistance to hygromycin. […] Monitoring Alamar Blue or hGH levels led to very similar EC50 curves for cell viability (measured as a % of control value) plotted against dimerizer concentration. In both cases the concentration of dimerizer corresponding to 50% of control was less than 1 nM.
In general terms: The colour change of resazurin is a common sign of viable cells or microbes.

The mark [4] stands for this setting: Synthetic Monomers table, normalized to value of FK506 run in the same experiment, read-out: F36L IC50.
The mark [5] stands for this setting: Synthetic Monomers table, normalized to value of FK506 run in the same experiment, read-out: wild-type IC50.
Setting [6] is: Synthetic Monomers table, normalized to value of FK506 run in the same experiment, read-out: F36V IC50.
Where [7] appears, read: read-out: FKBPwt binding affinity IC50.
The mark [8] stands for this setting: Synthetic Multimerizers table, monomer value in brackets, mean of duplicates, normalized to FK506 = […] (substituted phenyl/lower aliphatic series: to AP1903 values), read-out: FKBPF36V binding affinity IC50.

F36L mutant FKBP, sequence (P62942 2-108 F37L): as the sequence (P62942 2-108) above, with F36L counted along it
Procedure for F36A mutant FKBP: (§1) Affinities of bumped synthetic ligands for FKBP were determined using a competitive assay based on fluorescence polarization (FP). […] The assay yields IC50 values that are related to the affinity of the competitive ligand for the protein.
(§2) All binding assay procedures were performed at room temperature. Serial dilutions of each protein were prepared in 50 mM potassium phosphate pH 7.8/150 mM NaCl/ 100µg/ml bovine gamma globulin ("FP buffer": prepared using only low-fluorescence reagents from Panvera), and 100 µl volumes transferred to wells of a Dynatech micro-fluor black 96-well fluorescence plate. 100 µl of 10 nM 4 in FP buffer plus 2% ethanol (prepared from an ethanol stock of the probe) was then added to each well with mixing. Duplicate control wells contained FP buffer instead of FKBP (for 0% probe binding) or 10 µM wild-type FKBP (for 100% binding).
(§3) The plates were stored covered in the dark for approximately 30 min to permit equilibration and then the fluorescence polarization of the sample in each well was read on a Jolley FPM-2 FP plate reader (Jolley Consulting and Research, Inc., Grayslake, IL) in accordance with the manufacturer's recommendations. Polarization (mP units) for each protein concentration was plotted (y axis) vs. final concentration of FKBP (x axis). Concentrations were determined by OD280 measurements. Arbitrary units were used for non-quantitated proteins.
(§4) Serial 10-fold dilutions of each synthetic ligand were prepared in 100% ethanol in glass vials and stored on ice. All other manipulations were performed at room temperature. […] 2.0 µl samples of the synthetic ligands were then transferred in duplicate to the wells with mixing. Finally, a probe solution was prepared containing 10 nM 4 in 0.1% ethanol/FP buffer, and 100 µl added to each well with mixing. Duplicate control wells contained ethanol instead of FKBP ligand (for 100% probe binding) or ethanol instead of FKBP ligand and FP buffer instead of FKBP (0% binding).
(§5) The plates were stored covered in the dark for approximately 30 min to permit equilibration and then the fluorescence polarization of the sample in each well read on a Jolley FPM-2 FP plate reader (Jolley Consulting and Research, Inc., Grayslake, IL) in accordance with the manufacturer's recommendations. The mean polarization (mP units) for each competitor concentration, in some cases converted to % total binding by reference to the control values, was plotted (y axis) vs. log molar final concentration of competitor (x axis). […] For incomplete curves the IC50 was determined by interpolation.
Procedure for F36I mutant FKBP: as §1, §2, §3, §4, §5
Procedure for F36L mutant FKBP: as §1, §2, §3, §4, §5
Procedure for F36M mutant FKBP: as §1, §2, §3, §4, §5
Procedure for mutant (F36V) FKBP: as §1, §2, §3, §4, §5
Procedure for wild-type human FKBP12: as §1, §2, §3
Serial 10-fold dilutions of each synthetic ligand were prepared in 100% ethanol in glass vials and stored on ice. All other manipulations were performed at room temperature. […] Finally, a probe solution was prepared containing 10 nM 4 in 0.1% ethanol/FP buffer, and 100 µl added to each well with mixing. Duplicate control wells contained ethanol instead of FKBP ligand (for 100% probe binding) or ethanol instead of FKBP ligand and FP buffer instead of FKBP (0% binding).
as §5

One may read the pIC50 as the negative decadic logarithm of the IC50, by convention in mol/L. In the case of `COc1ccc(CCC(OC(=O)C2CCCCN2C(=O)C(c2ccccc2)C2CCCC2)c2cccc(OCC(=O)O)c2)cc1OC` (mixture of isomers) [AP1778], the pIC50 at F36L mutant FKBP (setting [4]) was 7.49; at wild-type human FKBP12 (setting [5]) it was 4.80; on mutant (F36V) FKBP (setting [6]), 7.66.

Take `COc1ccc(CCC(OC(=O)C2CCCCN2C(=O)C(c2ccccc2)C(C)C)c2cccc(OCC(=O)O)c2)cc1OC` (mixture of isomers) [AP1781]: the pIC50 was 7.48 on F36L mutant FKBP (setting [4]), 4.41 on wild-type human FKBP12 (setting [5]) and 7.59 at mutant (F36V) FKBP (setting [6]).

Turning to `COc1ccc(CCC(OC(=O)C2CCCCN2C(=O)C(Cc2ccccc2)c2ccccc2)c2cccc(OCC(=O)O)c2)cc1OC` (mixture of isomers) [AP1831], the negative-log IC50 (pIC50) at F36L mutant FKBP (setting [4]) is 6.66; on wild-type human FKBP12 (setting [5]), less than 5.00; at mutant (F36V) FKBP (setting [6]) it was 6.82.

Consider `CCC(C)(C)C(=O)C(=O)N1CCCC[C@H]1C(=O)O[C@H](CCc1ccc(OC)c(OC)c1)c1cccc(OCC(=O)O)c1` [AP1497], for which the pIC50 is 7.33 at F36L mutant FKBP (setting [4]), 7.07 on wild-type human FKBP12 (setting [5]) and 7.36 on mutant (F36V) FKBP (setting [6]).

Regarding `CC[C@@H](C(=O)N1CCCC[C@H]1C(=O)O[C@H](CCc1ccc(OC)c(OC)c1)c1cccc(OCC(=O)O)c1)c1ccccc1` [AP1769], the negative-log IC50 (pIC50) on F36I mutant FKBP was 6.46; at F36A mutant FKBP, 6.34; at F36L mutant FKBP (setting [4]), 6.62; on wild-type human FKBP12 (setting [5]), 3.66; at F36M mutant FKBP, 6.71; on mutant (F36V) FKBP (setting [6]), 6.88.

Take `COc1ccc(CC[C@@H](OC(=O)[C@@H]2CCCCN2C(=O)Cc2ccccc2)c2cccc(OCC(=O)O)c2)cc1OC` [AP1780]: the pIC50 was 5.69 at F36I mutant FKBP; 5.08 on F36A mutant FKBP; 5.45 on F36L mutant FKBP (read-out: F36L IC50); 4.67 on wild-type human FKBP12 (setting [5]); 5.59 at F36M mutant FKBP; 5.82 at mutant (F36V) FKBP (setting [6]).

With `COc1ccc(CC[C@@H](OC(=O)[C@@H]2CCCCN2C(=O)[C@H](C)c2ccccc2)c2cccc(OCC(=O)O)c2)cc1OC` [AP1782], the pIC50 was 5.98 at F36I mutant FKBP; 5.84 at F36A mutant FKBP; 5.85 on F36L mutant FKBP (setting [4]); less than 4.00 at wild-type human FKBP12 (setting [5]); 6.03 at F36M mutant FKBP; 6.23 at mutant (F36V) FKBP (setting [6]).

Regarding `COc1ccc(CC[C@@H](OC(=O)[C@@H]2CCCCN2C(=O)[C@@H](C)c2ccccc2)c2cccc(OCC(=O)O)c2)cc1OC` [AP1784], the pIC50 is 6.93 at F36I mutant FKBP; 6.77 on F36A mutant FKBP; 7.04 on F36L mutant FKBP (setting [4]); 4.80 on wild-type human FKBP12 (setting [5]); 6.38 at F36M mutant FKBP; 7.03 at mutant (F36V) FKBP (setting [6]).

For the molecule `CCC(C(=O)N1CCCC[C@H]1C(=O)O[C@H](CCc1ccc(OC)c(OC)c1)c1cccc(OCC(=O)O)c1)c1ccc2c(c1)OCO2` (some centres unmarked) [AP1839], the pIC50 at F36I mutant FKBP is 7.59; at F36A mutant FKBP, 7.49; at F36L mutant FKBP (read-out: F36L IC50), 7.24; on wild-type human FKBP12 (setting [5]), 4.87; at wild-type human FKBP12 (setting [7]), 4.78; at F36M mutant FKBP, 7.72. In addition, the figures for the pIC50 on mutant (F36V) FKBP (setting [6]) and on mutant (F36V) FKBP (setting [8]) were 8.05 and 8.27, respectively.

`CC[C@H](C(=O)N1CCCC[C@H]1C(=O)O[C@H](CCc1ccc(OC)c(OC)c1)c1cccc(OCC(=O)O)c1)c1cc(OC)c(OC)c(OC)c1` [AP1867]: the pIC50 is 8.21 at F36L mutant FKBP (read-out: FKBPF36L binding affinity IC50), 5.71 on wild-type human FKBP12 (setting [7]) and 8.74 at mutant (F36V) FKBP (setting [8]).

In the case of `CCC(C(=O)N1CCCC[C@H]1C(=O)O[C@H](CCc1ccc(OC)c(OC)c1)c1cccc(OCC(=O)NCCNC(=O)COc2cccc([C@@H](CCc3ccc(OC)c(OC)c3)OC(=O)[C@@H]3CCCCN3C(=O)C(CC)c3ccc4c(c3)OCO4)c2)c1)c1ccc2c(c1)OCO2` (some centres unmarked) [AP1885], in [1], the “Fas killing (wt, stable): % @ 1000” value was 0% @ 1000. Also, the “activation of transcription (wt; stable): % @ 1000” value (shortened to “activation … % @ 1000”) in [2] is 0% @ 1000. Also, the pIC50 on mutant (F36V) FKBP (setting [8]) was 7.23.

Turning to `CC[C@H](C(=O)N1CCCC[C@H]1C(=O)O[C@H](CCc1ccc(OC)c(OC)c1)c1cccc(OCC(=O)NCCNC(=O)COc2cccc([C@@H](CCc3ccc(OC)c(OC)c3)OC(=O)[C@@H]3CCCCN3C(=O)[C@@H](CC)c3ccccc3)c2)c1)c1ccccc1` [AP1889], the “Fas killing (wt, stable): % @ 1000” value in [1] is 0% @ 1000. Also, in data set [2], the “activation … % @ 1000” value is 0% (2×) and 1%. Besides, on mutant (F36V) FKBP (setting [8]), the pIC50 was 5.00.

As to `CCC(CC)C(=O)N1CCCC[C@H]1C(=O)O[C@H](CCc1ccc(OC)c(OC)c1)c1cccc(OCC(=O)NCCNC(=O)COc2cccc([C@@H](CCc3ccc(OC)c(OC)c3)OC(=O)[C@@H]3CCCCN3C(=O)C(CC)CC)c2)c1` [AP1891], the “Fas killing (wt, stable): % @ 1000” value in data set [1] came to 0% @ 1000. Also, the “activation … % @ 1000” value in [2] is recorded as 0% @ 1000.

With `CCC(CC)NC(=O)N1CCCC[C@H]1C(=O)O[C@H](CCc1ccc(OC)c(OC)c1)c1cccc(OCC(=O)NCCNC(=O)COc2cccc([C@@H](CCc3ccc(OC)c(OC)c3)OC(=O)[C@@H]3CCCCN3C(=O)NC(CC)CC)c2)c1` [AP1966], on mutant (F36V) FKBP (setting [8]), the pIC50 is 7.24.

On to `COc1ccc(CC[C@@H](OC(=O)[C@@H]2CCCCN2C(=O)C(c2ccccc2)c2ccccc2)c2cccc(OCC(=O)O)c2)cc1OC` [AP14245], for which the pIC50 at F36I mutant FKBP was 6.25; at F36A mutant FKBP, 6.90; on F36L mutant FKBP (setting [4]) it was 6.16; on F36M mutant FKBP it was 6.76; at mutant (F36V) FKBP (setting [6]) it was 6.56.

Regarding `CC[C@H](C(=O)N1CCCC[C@H]1C(=O)O[C@H](CCN1CCOCC1)c1cccc(OCC(=O)O)c1)c1cc(OC)c(OC)c(OC)c1` [AP14246, (1R)-1-(3-(carboxymethoxy)phenyl)-3-(morpholino)-1-propyl (2S)-1-((2S)-(3,4,5-trimethoxyphenyl)butyryl)-2-piperdine carboxylate], at mutant (F36V) FKBP (setting [8]), the negative logarithm of the IC50 (pIC50) is 7.78.

In the case of AP1903, the pEC50 in data set [1] (mean values, read-out: Fas killing (wt, stable) EC50) is 7.30 to 7.40; in data set [3] (Alamar Blue readout, read-out: concentration of dimerizer corresponding to 50% of control (cell viability, Alamar Blue)), greater than 9.00; in data set [3] (hGH readout, read-out: concentration of dimerizer corresponding to 50% of control (hGH levels)), greater than 9.00.
